Values of other authors, collected in patent publication EP0775491A1, “IMMUNOPOTENTIATOR” (TAYCA CORPORATION, priority 1995, dated 1997).
Where two headings read alike, the source gives them in different places.

Settings: oral administration to rats

## COC(COC(N)=O)C1=C(N2CC2)C(=O)C(C)=C(N2CC2)C1=O (stereo not shown) [Carboquone]
  LD50: 27.3 mg/kg

## O=P1(N(CCCl)CCCl)NCCCO1 (stereo not shown) [Cyclophosphide]
female
  LD50: 118 mg/kg
male
  LD50: 100 mg/kg

## O=c1[nH]cc(F)c(=O)[nH]1 [Fluorouracil]
  LD50: 781 mg/kg
